Our source for the IC50 and inhibition values is patent US7879876B2, “Sulfonamide derivatives and use thereof for the modulation of metalloproteinases” (Merck Serono SA, priority 2005, dated 2011).

Type in all cases: biochemical
The target in assay [1] is 92 kDa gelatinase (MMP-9) (Homo sapiens, UniProt P14780). Description: MMP-9 enzyme inhibition assay (coumarin-labeled peptide substrate). To be noted: for IC50: read-out: IC50 MMP9; for inhibition at 5 µM: read-out: percentage inhibition MMP9. In short, it runs like this:
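Recombinant human MMP-9 (APMA-activated if needed) was assayed in 100 mM Tris-HCl pH 7.6, 100 mM NaCl, 10 mM CaCl2, 0.05% Brij 35, with McaPLGLDpaAR substrate at 37° C. for 2 h. Fluorescence was read at ex 320/em 405 nm over ten 3-fold compound doses (100 μM–5.1 nM) in duplicate. IC50 came from a four-parameter fit.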

The target of the next assay is human ADAM17 (TACE) (Homo sapiens, UniProt P78536). Description: TACE enzyme inhibition assay. As for the experimental part: Compounds of the invention were tested to assess their activities as inhibitors of MMP-1, MMP-2, MMP-9, MMP-14, MMP-12 and TACE. MMP-9 Assay Protocol
Sequence of human ADAM17 (TACE) (P78536 215-824): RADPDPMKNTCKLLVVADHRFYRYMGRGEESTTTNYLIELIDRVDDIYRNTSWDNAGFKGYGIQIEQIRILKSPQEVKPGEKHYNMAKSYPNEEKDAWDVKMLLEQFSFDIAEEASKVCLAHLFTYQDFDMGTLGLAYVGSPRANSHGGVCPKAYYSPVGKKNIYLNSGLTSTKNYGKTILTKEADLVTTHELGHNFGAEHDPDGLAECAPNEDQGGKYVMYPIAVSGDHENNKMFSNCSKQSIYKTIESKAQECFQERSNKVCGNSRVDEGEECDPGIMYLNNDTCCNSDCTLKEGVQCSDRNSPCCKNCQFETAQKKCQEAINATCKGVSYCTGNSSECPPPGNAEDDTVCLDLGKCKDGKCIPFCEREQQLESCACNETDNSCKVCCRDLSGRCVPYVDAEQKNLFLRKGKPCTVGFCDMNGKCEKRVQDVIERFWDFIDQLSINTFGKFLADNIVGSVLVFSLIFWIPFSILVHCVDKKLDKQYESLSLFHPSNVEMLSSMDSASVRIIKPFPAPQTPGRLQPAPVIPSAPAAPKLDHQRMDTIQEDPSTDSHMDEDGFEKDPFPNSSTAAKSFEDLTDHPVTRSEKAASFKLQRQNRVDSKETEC
Compounds of the invention can be tested for inhibitory activity against human ADAM17 in an assay using human Mca-(endo-1a-Dap(Dnp)-TNF-alpha(−5 to +6)amide as substrate (FEBS Letters, 2000, 275-279).
Stock solutions are prepared as followed: • Assay Buffer: 20 mM Hepes pH 7.5 (Fluka) containing 0.05% Brij 35 (Fluka) • Substrate: 6.1 mM human Mca-(endo-1a-Dap(Dnp)-TNF-alpha(−5 to +6)amide (Bachem) stock solution in 100% DMSO (stored at −20° C.); diluted to 5 μM in assay buffer. • Enzyme: Recombinant human ADAM17, appropriately diluted in assay buffer (1.5 μg/ml).
Test Compounds are prepared initially as 10 mM compound solution in 100% DMSO, diluted to 1 mM in 100% DMSO, then serially diluted 3-fold in 100% DMSO across a 96-well microtitre plate. Assay concentration range is typically between 100 μM to 0.01 nM. The assay is performed in a total volume of 100 μL per well in 96-well microtitre plates. Appropriate concentrations of test compounds dissolved in 10 μL of DMSO are added to the wells, followed by substrate solution (50 μL, 5 μM prepared by dilution of DMSO stock in assay buffer) and enzyme solution (40 μL). For each as say ten concentrations of test compound are examined in […]. Control wells lack either enzyme or test compound. The reactions are incubated at room temperature for 1.5 hours. The fluorescence at 405 nm is measured immediately with a fluorometer using 355 nm excitation, without stopping the reaction.
The effect of the test compound is determined from the dose response curve generated by the 10 duplicate concentrations of inhibitor. The IC50 (the concentration of compound required to give a 50% decrease in enzyme activity) is obtained by fitting data to the equation, Y=a+((b−a)/(1+(c/X)^d)). (Y=inhibition achieved for a particular dose; X=the dose in nM; a=minimum y or zero % inhibition; b=maximum y or 100% inhibition; c=is the IC50; d=is the slope). The result is rounded to one significant figure.

For another assay, the target named is MMP-14 (Homo sapiens, UniProt P50281). Description: MMP-14 enzyme inhibition assay (coumarin-labelled peptide substrate). Conditions: read-out: percentage inhibition MMP14. Put shortly: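 Recombinant human enzyme, APMA-activated if necessary, was incubated with McaPLGLDpaAR substrate and compound (10 concentrations in duplicate, 100 μM to 5.1 nM) in Tris-HCl pH 7.6 with NaCl, CaCl2 and Brij 35 for 2 h at 37 °C. Fluorescence was read at 320/405 nm, and IC50 was taken from a four-parameter fit.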

Sequence of 92 kDa gelatinase (MMP-9) (P14780 107-707 limits assumed): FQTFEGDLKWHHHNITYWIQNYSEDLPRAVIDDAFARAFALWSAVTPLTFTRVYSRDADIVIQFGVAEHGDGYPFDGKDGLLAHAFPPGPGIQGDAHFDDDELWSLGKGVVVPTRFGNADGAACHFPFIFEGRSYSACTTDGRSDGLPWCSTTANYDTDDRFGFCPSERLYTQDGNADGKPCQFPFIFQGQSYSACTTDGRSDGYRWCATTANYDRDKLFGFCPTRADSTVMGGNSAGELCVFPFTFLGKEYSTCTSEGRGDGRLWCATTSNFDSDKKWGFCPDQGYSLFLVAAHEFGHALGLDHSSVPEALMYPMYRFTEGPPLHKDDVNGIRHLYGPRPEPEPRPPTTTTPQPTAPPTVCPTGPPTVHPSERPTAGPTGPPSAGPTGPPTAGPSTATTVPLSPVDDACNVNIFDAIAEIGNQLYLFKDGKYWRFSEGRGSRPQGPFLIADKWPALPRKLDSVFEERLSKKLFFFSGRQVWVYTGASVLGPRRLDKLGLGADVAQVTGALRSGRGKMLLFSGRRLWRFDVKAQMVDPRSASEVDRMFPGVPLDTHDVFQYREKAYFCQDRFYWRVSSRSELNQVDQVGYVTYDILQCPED

`O=CN(O)[C@H](CS(=O)(=O)N1CCc2ccc(Cl)cc2C1)[C@H]1CCCO1` [Example 23, N-{(1S)-2-[(7-chloro-3,4-dihydroisoquinolin-2(1H)-yl)sulfonyl]-1-[(2R)-tetrahydrofuran-2-yl]ethyl}-N-hydroxyformamide]: the IC50 was more than 5 µM in assay [1] and 0.013 µM at human ADAM17 (TACE). Moreover, the inhibition at 0.1 µM on MMP-14 was determined as 7%. For the same compound, the inhibition at 5 µM at MMP-14 was 72%.

Take `COc1cc2c(cc1OC)CN(S(=O)(=O)CC([C@H](O)CO)N(O)C=O)CC2` (stereo partly drawn) [Example 24, N-((2S)-1-{[(6,7-dimethoxy-3,4-dihydroisoquinolin-2(1H)-yl)sulfonyl]methyl}-2,3-dihydroxypropyl)-N-hydroxyformamide]: the IC50 (in assay [1]; at human ADAM17 (TACE)) was more than 5 µM in each case. Besides, the inhibition at 5 µM on MMP-14 was determined as 0%.

For the compound `O=CN(O)C(CS(=O)(=O)N1CCc2cc(C(F)(F)F)ccc2C1)C1CCCC1` (centres unmarked) [Example 25, N-(1-cyclopentyl-2-{[6-(trifluoromethyl)-3,4-dihydro-isoquinolin-2(1H)-yl]sulfonyl}ethyl)-N-hydroxyformamide], in assay [1], the IC50 is more than 5 µM. The same compound returned an IC50 against human ADAM17 (TACE) of 1.2 µM. Besides, at MMP-14, the inhibition at 0.1 µM came to 0% and the inhibition at 5 µM is 73%.

With `CC(C)(C)CC(CS(=O)(=O)N1Cc2ccc(F)cc2C1)N(O)C=O` (centres unmarked) [Example 26, N-(1-{[(5-fluoro-1,3-dihydro-2H-isoindol-2-yl)sulfonyl]methyl}-3,3-dimethylbutyl)-N-hydroxyformamide], the results for the inhibition at 5 µM (in assay [1]; at MMP-14) were 62% and 82%, respectively. In addition, the IC50 against human ADAM17 (TACE) is 1.1 µM.

For `O=CN(O)[C@H](CS(=O)(=O)N1CCc2ccc(C(F)(F)F)cc2C1)[C@H]1CCCO1` [Example 27, N-hydroxy-N-((1S)-1-[(2R)-tetrahydrofuran-2-yl]-2-{[7-(trifluoromethyl)-3,4-dihydroisoquinolin-2(1H)-yl]sulfonyl}ethyl)formamide], the results for the inhibition at 5 µM (in assay [1]; on MMP-14) were 13% and 41%, respectively. Also, it took 0.506 µM to reach half-maximal inhibition at human ADAM17 (TACE) (IC50).

As to `CC1(C)OC[C@H](C(CS(=O)(=O)N2CCc3ccc(C(F)(F)F)cc3C2)N(O)C=O)O1` (stereo partly drawn) [Example 28, N-(1-[(4S)-2,2-dimethyl-1,3-dioxolan-4-yl]-2-{[7-(trifluoro-methyl)-3,4-dihydroisoquinolin-2(1H)-yl]sulfonyl}ethyl)-N-hydroxyformamide], the inhibition at 5 µM worked out at 21% in assay [1] and 62% at MMP-14. Also, the IC50 on human ADAM17 (TACE) turned out to be 1.28 µM.

For `O=CN(O)[C@H](CS(=O)(=O)N1Cc2ccc(F)cc2C1)[C@H]1CCCO1` [Example 29, N-{(1S)-2-[(5-fluoro-1,3-dihydro-2H-isoindol-2-yl)-sulfonyl]-1-[(2R)-tetrahydrofuran-2-yl]ethyl}-N-hydroxyformamide], the inhibition at 5 µM worked out at 40% in assay [1] and 78% on MMP-14. In addition, the IC50 against human ADAM17 (TACE) stood at 0.277 µM.

Turning to `CCC#CCC(C)(C)C(CS(=O)(=O)N1CCc2cc(C(F)(F)F)ccc2C1)N(O)C=O` (centres unmarked) [Example 30, N-[2,2-dimethyl-1-({[6-(trifluoromethyl)-3,4-dihydro-isoquinolin-2(1H)-yl]sulfonyl}methyl)hept-4-yn-1-yl]-N-hydroxyformamide], the inhibition at 5 µM in assay [1] was 3%; at MMP-14, 38%. For the same compound, at human ADAM17 (TACE), the IC50 is more than 5 µM.

Take `CC(C)(Cc1ccccc1)C(CS(=O)(=O)N1CCc2cc(C(F)(F)F)ccc2C1)N(O)C=O` (centres unmarked) [Example 31, N-[2,2-dimethyl-3-phenyl-1-({[6-(trifluoromethyl)-3,4-dihydroisoquinolin-2(1H)-yl]sulfonyl}methyl)propyl]-N-hydroxyformamide]: the inhibition at 5 µM in assay [1] stood at 3%; on MMP-14 it was 19%. On human ADAM17 (TACE), this compound displayed an IC50 of more than 5 µM.

For the compound `O=CN(O)[C@@H](CS(=O)(=O)N1CCc2ccc(C(F)(F)F)cc2C1)[C@H]1CCCO1` [Example 32, N-hydroxy-N-((1R)-1-[(2R)-tetrahydrofuran-2-yl]-2-{[7-(trifluoromethyl)-3,4-dihydroisoquinolin-2(1H)-yl]sulfonyl}ethyl)formamide], the inhibition at 5 µM turned out to be 4% in assay [1] and 14% on MMP-14. In addition, the IC50 against human ADAM17 (TACE) was more than 5 µM.

Regarding `COc1ccc2c(c1)CN(S(=O)(=O)CC(CCC1CCCO1)N(O)C=O)CC2` (centres unmarked) [Example 33, N-hydroxy-N-[1-{[(7-methoxy-3,4-dihydroisoquinolin-2(1H)-yl)sulfonyl]methyl}-3-(tetrahydrofuran-2-yl)propyl]formamide], the inhibition at 5 µM in assay [1] was 15%; at MMP-14 it was 30%. Also, the IC50 on human ADAM17 (TACE) is 0.427 µM.

Take `CCC(CC)C(CS(=O)(=O)N1CCc2cc(Cl)c(Cl)cc2C1)N(O)C=O` (centres unmarked) [Example 34, N-(1-{[(6,7-dichloro-3,4-dihydroisoquinolin-2(1H)-yl)-sulfonyl]methyl}-2-ethylbutyl)-N-hydroxyformamide]: the inhibition at 5 µM turned out to be 42% in assay [1] and 82% at MMP-14. At human ADAM17 (TACE), this compound showed an IC50 of 0.353 µM. Besides, the inhibition at 0.1 µM on MMP-14 was 3%.

For `CCC(CC)C(CS(=O)(=O)N1CCc2cc(C(C)C)ccc2C1)N(O)C=O` (centres unmarked) [Example 35, N-(2-ethyl-1-{[(6-isopropyl-3,4-dihydroisoquinolin-2(1H)-yl)sulfonyl]methyl}butyl)-N-hydroxyformamide], the inhibition at 5 µM in assay [1] came to 43%. Also, at human ADAM17 (TACE), the IC50 was more than 5 µM. Further, on MMP-14, the inhibition at 0.1 µM is 7% and the inhibition at 5 µM is 85%.

On to `CCC(CC)C(CS(=O)(=O)N1CCc2ccc(Br)cc2C1)N(O)C=O` (centres unmarked) [Example 36, N-(1-{[(7-bromo-3,4-dihydroisoquinolin-2(1H)-yl)sulfonyl]-methyl}-2-ethylbutyl)-N-hydroxyformamide], for which the inhibition at 5 µM in assay [1] stood at 37%; on MMP-14, 75%. For the same compound, half-maximal inhibition at human ADAM17 (TACE) (IC50) was put at 0.228 µM. Moreover, the inhibition at 0.1 µM at MMP-14 was found to be 3%.

For `CCC(CC)C(CS(=O)(=O)N1CCc2cc(C(F)(F)F)ccc2C1)N(O)C=O` (centres unmarked) [Example 37, N-[2-ethyl-1-({[6-(trifluoromethyl)-3,4-dihydroisoquinolin-2(1H)-yl]sulfonyl}methyl)butyl]-N-hydroxyformamide], the inhibition at 5 µM in assay [1] stood at 58%. Besides, the IC50 against human ADAM17 (TACE) was determined as 1.09 µM. Besides, on MMP-14, the inhibition at 0.1 µM was found to be 8% and the inhibition at 5 µM came out at 83%.

`CCC(CC)C(CS(=O)(=O)N1CCc2ccc(OC)cc2C1)N(O)C=O` (centres unmarked) [Example 38, N-(2-ethyl-1-{[(7-methoxy-3,4-dihydroisoquinolin-2(1H)-yl)sulfonyl]methyl}butyl)-N-hydroxyformamide]: the inhibition at 5 µM in assay [1] was found to be 50%; on MMP-14 it was 49%. Besides, the IC50 at human ADAM17 (TACE) amounted to 0.276 µM.

Consider `CC(C)C(CS(=O)(=O)N1CCc2cc(Cl)c(Cl)cc2C1)N(O)C=O` (centres unmarked) [Example 39, N-(1-{[(6,7-dichloro-3,4-dihydroisoquinolin-2(1H)-yl)-sulfonyl]methyl}-2-methylpropyl)-N-hydroxyformamide], for which the inhibition at 5 µM in assay [1] stood at 47%. On human ADAM17 (TACE), this compound returned an IC50 of 0.171 µM. For the same compound, at MMP-14, the inhibition at 0.1 µM came to 10% and the inhibition at 5 µM worked out at 87%.

For `CCCOc1ccc2c(c1)CN(S(=O)(=O)CC(CC(C)(C)C)N(O)C=O)CC2` (centres unmarked) [Example 40, N-(3,3-dimethyl-1-{[(7-propoxy-3,4-dihydroisoquinolin-2(1H)-yl)sulfonyl]methyl}butyl)-N-hydroxyformamide], the inhibition at 5 µM was found to be 11% in assay [1] and 54% at MMP-14. Moreover, it took 1.12 µM to reach half-maximal inhibition against human ADAM17 (TACE) (IC50).

For the compound `CC(C)(C)CC(CS(=O)(=O)N1CCc2ccc(Cl)cc2C1)N(O)C=O` (centres unmarked) [Example 41, N-(1-{[(7-chloro-3,4-dihydroisoquinolin-2(1H)-yl)sulfonyl]-methyl}-3,3-dimethylbutyl)-N-hydroxyformamide], the inhibition at 5 µM in assay [1] worked out at 14%; at MMP-14 it was 74%. The compound further yielded an IC50 against human ADAM17 (TACE) of 0.189 µM. Further, the inhibition at 0.1 µM at MMP-14 amounted to 5%.
